Assay results as given in patent US20130143230A1, “MICROFLUIDIC-BASED CELL-CULTURING PLATFORM AND METHOD” (The Trustees of the Stevens Institute of Technology, priority 2011, published 2013).

Key:
Type in all cases: cell-based, Human
MCF-7 [1] = test: Drug evaluation in microfluidic 3D breast cancer tissue culture (tissue nodules); conditions: flow 0.8 μL/min, one week, 3D microfluidic culture
Description: Human breast cancer cells (from immortalized cell line MCF-7) were incubated in a tissue culture chamber for 2 weeks with a continuous media flow at 0.8 μL/min. Initial cell attachment was seen across the entire chamber surface and continuously proliferated over time to form a 3D tissue layer having a depth of about 70-100 μm. […] These structures were similar to those observed in the earliest stages of tumor formation. A majority of the cells remained viable.
In contrast to pure cultures of breast cancer cells, co-cultures with stromal cells stimulate breast cancer cells. […] At three weeks of incubation, the nodule-like structures had become large enough to be recognized under a microscope, reaching 80-150 μm in diameter. Based on histological staining, the organization of these cells was consistent with their cancerous origin. The cells appeared to be transformed, having an increased nuclear/cytoplasmic ratio, and the cell mass was disorganized.
Doxorubicin (Dox), a known anticancer drug, was first tested using the microfluidic breast tissue culture described in the preceding examples. Dox was delivered to the tissue nodules at 10 nM and 1 μM, respectively, at a flow rate of 0.8 μL/min of medium via the inlet for one week.
A new lytic anticancer peptide (L5) was designed and synthesized to interact with cell membranes and therefore disrupt membrane integrity and destroy cells. The peptide drug was delivered to the tissue nodules at 30 μg/mL in the medium at a flow rate of 0.8 μL/min of medium via inlet for 2 days. […] Occasionally, some nuclei were still seen in the remaining tissue matrix. […] This may be due to a reduced rate of diffusion of the drug to the area of the surviving cells. This finding highlights the value of using the microfluidic culture model for drug assessment as it provides a more accurate representation of the 3D cellular organization encountered in vivo. It also hints at a plausible explanation to why some breast cancer therapies fail in vivo or why recurrence and multidrug resistance occurs after chemotherapy. […]

MCF-7 [2] = test: Photodynamic therapy in 2D culture, live/dead staining
Text: […] After cellular uptake, 5-ALA was converted into photosensitive protoporphyrin (PpIX). […] High ROS concentrations led to cell destruction. To determine the extent of cell damage, the culture was stained with a live/dead staining kit (Sigma) after overnight culture and examined with a Leica confocal microscope.

MCF-7 [3] = test: Photodynamic therapy in 3D cultured breast cancer tissue, live/dead staining; conditions: 3D tissue, perfusion 4 hours, broadband halogen light 1 minute, stained after overnight culture
Description: A photosensitizer precursor drug, aminolevulinic acid (5-ALA) was supplemented in the culture media delivered to a 3D cultured breast cancer tissue (MCF-7), and allowed to infiltrate the tissue via perfusion for 4 hours to emulate microinjection. After cellular uptake, 5-ALA was converted into photosensitive protoporphyrin (PpIX). […] High ROS concentrations led to cell destruction. To determine the extent of cell damage, the culture was stained with a live/dead staining kit (Sigma) after overnight culture and examined with a Leica confocal microscope.

SMILES | progression of tumor nodules (real-time images) (MCF-7 [1]; 10 nM in medium) | formation of dark nodules (real-time images) (MCF-7 [1]; 1 μM in medium) | tissue growth (MCF-7 [1]; 1 μM in medium) | cells killed after PDT treatment (MCF-7 [2]) | cells killed after PDT treatment (MCF-7 [3])
COc1cccc2c1C(=O)c1c(O)c3c(c(O)c1C2=O)C[C@@](O)(C(=O)CO)C[C@@H]3O[C@H]1C[C@H](N)[C@H](O)[C@H](C)O1 [Dox, Doxorubicin] | continuous progression of tumor nodules was observed | No obvious formation of dark nodules was observed | continuous tissue growth was noticed |  | 
NCC(=O)CCC(=O)O [5-ALA, aminolevulinic acid] |  |  |  | about 70% | about 50%
